In US6436920B1, “Wrinkling modifiers” (Kao Corporation, priority 1996, dated 2002):

System: Wrinkles formed on hairless mice by exposure to UVB
Assay: Effect of the guanidine derivatives on wrinkles formed on hairless mice by exposure to UVB
Type: in vivo, Hairless mice (HR/ICR)
Settings: for Area percent by image analysis (%): proportion of shadows of wrinkles on back skin replicas (14 mm, illuminated at 30 degrees), 4% in aqueous ethanol, 100 μl 5 times a week over 6 weeks, control 10.6; for Wrinkle index: visual score 1 (wrinkles completely removed or smoothed) to 4 (observed to a great extent), 4% in aqueous ethanol (50/50 vol. %), 100 μl applied 5 times a week over 6 weeks, groups of 8 mice, control 3.73
Method: Effect of the Guanidine Derivatives (1) to (16) on Wrinkles Formed on Hairless Mice by Exposure to UVB
(1) Hairless mice (HR/ICR, aged 6 weeks at the beginning of the experiment) were,exposed to UVB 3 times a week by using 6 Toshiba healthy lamps, 20SE. The amount of energy was measured by means of a UV-Radiometer, UVR-305/365D manufactured by TOKYO OPTICAL K.K. The dose upon one exposure was determined to be 1 MED or less, i.e., 65 mJ in an amount of energy of 0.28 mW/cm^2. The exposure was effected for 20 weeks. After confirming that the hairless mice had got wrinkles at their backs, they were divided into groups each consisting of 8 mice. Aqueous ethanol (water/ethanol=50/50 vol. %) solutions separately containing Compounds (1) to (16) at a concentration of 4% were applied 5 times a week to their corresponding groups of mice over 6 weeks in a dose of 100 μl. As a control, aqueous ethanol (water/ethanol=50/50 vol. %) was applied in a dose of 100 μl like the samples. After completion of the application, the degree of wrinkles was visually observed to evaluate the samples in accordance with the following standard (wrinkle index).
1: Wrinkles were completely removed or smoothed;
2: Wrinkles were scarcely observed;
3: Wrinkles were somewhat observed;
(2) In order to further analyze the particulars of wrinkles, skin replicas of the size of 14 mm in diameter were gathered from a portion of the back in each of the mice using a Hydrophilic Exaflex hydrophilic vinylsilicone impression material. Each of these replicas was held horizontally and illuminated at an angle of 30 degrees from the horizontal direction, thereby finding a proportion of shadows of the wrinkles as an area percent by means of an image analyzer.

| Structure (SMILES) | Area percent by image analysis (%) | Wrinkle index |
| --- | --- | --- |
| N=C(N)N1CC(O)CC1C(=O)O (centres unmarked) [Compound (1)] | 3.21% | 2.0 |
| N=C(N)N1CCCC1C(=O)O (centres unmarked) [Compound (2)] | 2.48% | 2.125 |
| N=C(N)N1CCC(O)C1 (centres unmarked) [Compound (3)] | 4.32% | 2.50 |
| N=C(N)N1CCCC1CO (centres unmarked) [Compound (4)] | 5.37% | 2.50 |
| N=C(N)N1CCOCC1 [Compound (5)] | 4.76% | 2.75 |
| N=C(N)N1CCC(C(=O)O)CC1 [Compound (6)] | 3.51% | 2.75 |
| N=C(N)N1CCN(C(=N)N)CC1 [Compound (7)] | 4.28% | 2.75 |
| N=C(N)N1CCC(O)C1 (centres unmarked) [Compound (8)] | 3.26% | 2.25 |
| N=C(N)N1CCCC1CO (centres unmarked) [Compound (9)] | 4.00% | 2.375 |
| N=C(N)N1CCOCC1 [Compound (10)] | 3.41% | 2.50 |
| N=C(N)N1CCN(C(=N)N)CC1 [Compound (11)] | 4.02% | 2.75 |
| N=C(N)N1CCC(O)C1 (centres unmarked) [Compound (12)] | 3.62% | 2.50 |
| N=C(N)N1CCCC1CO (centres unmarked) [Compound (13)] | 4.30% | 2.375 |
| N=C(N)N1CCCC1 [Compound (14)] | 3.62% | 2.125 |
| N=C(N)N1CCCCC1 [Compound (15)] | 4.48% | 2.50 |
| N=C(N)N1CCC(CC(=O)O)CC1 [Compound (16)] | 4.25% | 2.25 |
